Data set [1] in a line: Spectroscopic properties of the BDM library (absorbance and emission maxima). Type of data set: physicochemical.
Data set [2] can be described thus: Quantum yield measurements. Type of data set: physicochemical. The settings on record: referred to Rhodamine B in EtOH, excitation 510 nm, emission integrated 540-800 nm. As for the experimental part: Quantum yields were calculated by measuring the integrated emission area of the fluorescent spectra, and referring them to the area measured for Rhodamine B in EtOH after excitation at 510 nm (ΦRho-B=0.70). Quantum yields for the BDM products were then calculated using equation below, where F represents the area of fluorescent emission, n is reflective index of the solvent, and Abs is absorbance at excitation wavelength selected for standards and samples. Emission was integrated from 540 nm to 800 nm.

Consider 40 compounds from patent US9267949B2, “Alkylamino BODIPY dyes as selective fluorescent probes for proteins and mouse embryonic stem cells” (National University of Singapore, priority 2011, dated 2016).

The structures appear in SMILES notation.

For the compound `CC1=CC(/C=C/c2ccc(I)cc2)=[N+]2C1=C(CCN)c1cccn1[B-]2(F)F` [BDM-237], in data set [1], the “λmax (ABS)” value worked out at 558 nm and the “λmax (EM)” value turned out to be 572 nm. In data set [2], the “φ (quantum yield)” value is 0.35.
With `COc1ccc(F)cc1/C=C/C1=[N+]2C(=C(CCN)c3cccn3[B-]2(F)F)C(C)=C1` [BDM-239], in data set [1], the “λmax (ABS)” value was determined as 559 nm and the “λmax (EM)” value was 572 nm. Besides, in data set [2], the “φ (quantum yield)” value is given as 0.28.
Consider `CC1=CC(/C=C/c2ccccc2OC(F)F)=[N+]2C1=C(CCN)c1cccn1[B-]2(F)F` [BDM-240], for which, in data set [1], the “λmax (ABS)” value came to 552 nm and the “λmax (EM)” value turned out to be 565 nm. Also, the “φ (quantum yield)” value in data set [2] worked out at 0.23.
On the same counts, the results for `COc1c(Br)cc(Br)cc1/C=C/C1=[N+]2C(=C(CCN)c3cccn3[B-]2(F)F)C(C)=C1` [BDM-241] are 560 nm, 576 nm and 0.32.
Turning to `CC1=CC(/C=C/c2c(C)cccc2C)=[N+]2C1=C(CCN)c1cccn1[B-]2(F)F` [BDM-243], in data set [1], the “λmax (ABS)” value is 543 nm and the “λmax (EM)” value is reported as 565 nm. In addition, the “φ (quantum yield)” value in data set [2] amounted to 0.87.
The corresponding values for `COc1ccc(F)c(/C=C/C2=[N+]3C(=C(CCN)c4cccn4[B-]3(F)F)C(C)=C2)c1` [BDM-245] are 555 nm, 563 nm and 0.32.
Regarding `CC1=CC(/C=C/c2c(Cl)ccc(C)c2F)=[N+]2C1=C(CCN)c1cccn1[B-]2(F)F` [BDM-246], in data set [1], the “λmax (ABS)” value came to 554 nm and the “λmax (EM)” value is reported as 566 nm. Moreover, in data set [2], the “φ (quantum yield)” value amounted to 0.17.
On the same counts, the results for `COc1cc(OC)c(/C=C/C2=[N+]3C(=C(CCN)c4cccn4[B-]3(F)F)C(C)=C2)cc1Br` [BDM-247] are 571 nm, 599 nm and 0.54.
For `CC1=CC(/C=C/c2ccc(C)c(F)c2)=[N+]2C1=C(CCN)c1cccn1[B-]2(F)F` [BDM-249], in data set [1], the “λmax (ABS)” value is reported as 557 nm and the “λmax (EM)” value was found to be 568 nm. Further, in data set [2], the “φ (quantum yield)” value stood at 0.24.
Regarding `CCc1ccccc1/C=C/C1=[N+]2C(=C(CCN)c3cccn3[B-]2(F)F)C(C)=C1` [BDM-251], in data set [1], the “λmax (ABS)” value is given as 556 nm and the “λmax (EM)” value is 572 nm. The “φ (quantum yield)” value in data set [2] worked out at 0.22.
Turning to `CCc1ccc(/C=C/C2=[N+]3C(=C(CCN)c4cccn4[B-]3(F)F)C(C)=C2)cc1[N+](=O)[O-]` [BDM-252], in data set [1], the “λmax (ABS)” value is 556 nm and the “λmax (EM)” value is listed as 569 nm. In data set [2], the “φ (quantum yield)” value came out at 0.08.
The corresponding values for `COc1cc(/C=C/C2=[N+]3C(=C(CCN)c4cccn4[B-]3(F)F)C(C)=C2)cc(Br)c1OC` [BDM-259] are 559 nm, 573 nm and 0.35.
On the same counts, the results for `COc1ccc(/C=C/C2=[N+]3C(=C(CCN)c4cccn4[B-]3(F)F)C(C)=C2)cc1Br` [BDM-260] are 564 nm, 582 nm and 0.05.
`CCCCc1ccc(/C=C/C2=[N+]3C(=C(CCN)c4cccn4[B-]3(F)F)C(C)=C2)cc1` [BDM-263]: in data set [1], the “λmax (ABS)” value amounted to 559 nm and the “λmax (EM)” value is recorded as 571 nm. In addition, the “φ (quantum yield)” value in data set [2] came to 0.26.
On the same counts, the results for `CC1=CC(/C=C/c2ccc(C)cc2Br)=[N+]2C1=C(CCN)c1cccn1[B-]2(F)F` [BDM-267] are 558 nm, 573 nm and 0.21.
In the case of `COc1ccc(/C=C/C2=[N+]3C(=C(CCN)c4cccn4[B-]3(F)F)C(C)=C2)cc1Cl` [BDM-274], in data set [1], the “λmax (ABS)” value is listed as 562 nm and the “λmax (EM)” value turned out to be 577 nm. Further, in data set [2], the “φ (quantum yield)” value amounted to 0.46.
On to `COc1cc(Cl)cc(/C=C/C2=[N+]3C(=C(CCN)c4cccn4[B-]3(F)F)C(C)=C2)c1O` [BDM-275], for which the “λmax (ABS)” value in data set [1] came out at 562 nm. The “φ (quantum yield)” value in data set [2] worked out at 0.05.
With `CC1=CC(/C=C/c2ccc(Oc3ccc(Cl)cc3)cc2)=[N+]2C1=C(CCN)c1cccn1[B-]2(F)F` [BDM-277], in data set [1], the “λmax (ABS)” value amounted to 559 nm and the “λmax (EM)” value was determined as 574 nm. Also, the “φ (quantum yield)” value in data set [2] turned out to be 0.59.
The corresponding values for `COc1cccc(/C=C/C2=[N+]3C(=C(CCN)c4cccn4[B-]3(F)F)C(C)=C2)c1Cl` [BDM-281] are 554 nm, 567 nm and 0.28.
On the same counts, the results for `COc1cc(Cl)cc(/C=C/C2=[N+]3C(=C(CCN)c4cccn4[B-]3(F)F)C(C)=C2)c1OC` [BDM-282] are 558 nm, 565 nm and 0.19.
The corresponding values for `CC1=CC(/C=C/c2cccc(O)c2Cl)=[N+]2C1=C(CCN)c1cccn1[B-]2(F)F` [BDM-283] are 556 nm, 567 nm and 0.15.
As for `CC1=CC(/C=C/c2ccc(-c3cccc(Cl)c3)o2)=[N+]2C1=C(CCN)c1cccn1[B-]2(F)F` [BDM-284], in data set [1], the “λmax (ABS)” value is 594 nm and the “λmax (EM)” value was found to be 622 nm. Also, in data set [2], the “φ (quantum yield)” value stood at 0.03.
Consider `CC1=CC(/C=C/c2c(C)cccc2Cl)=[N+]2C1=C(CCN)c1cccn1[B-]2(F)F` [BDM-285], for which, in data set [1], the “λmax (ABS)” value was determined as 544 nm and the “λmax (EM)” value was 561 nm. In addition, the “φ (quantum yield)” value in data set [2] stood at 0.51.
On the same counts, the results for `CC1=CC(/C=C/c2ccc(C)c(Cl)c2)=[N+]2C1=C(CCN)c1cccn1[B-]2(F)F` [BDM-289] are 559 nm, 570 nm and 0.26.
On the same counts, the results for `CC1=CC(/C=C/c2ccc(Oc3cccc(Cl)c3)cc2)=[N+]2C1=C(CCN)c1cccn1[B-]2(F)F` [BDM-290] are 558 nm, 574 nm and 0.36.
On the same counts, the results for `COc1cccc(Oc2ccc(/C=C/C3=[N+]4C(=C(CCN)c5cccn5[B-]4(F)F)C(C)=C3)cc2)c1` [BDM-298] are 559 nm, 568 nm and 0.32.
On to `CC1=CC(/C=C/c2ccc(Oc3ccc(Cl)c(Cl)c3)cc2)=[N+]2C1=C(CCN)c1cccn1[B-]2(F)F` [BDM-299], for which, in data set [1], the “λmax (ABS)” value was 555 nm and the “λmax (EM)” value is on record as 563 nm. For the same compound, in data set [2], the “φ (quantum yield)” value was found to be 0.27.
`CC1=CC(/C=C/c2ccc(Oc3ccc(C)cc3)cc2)=[N+]2C1=C(CCN)c1cccn1[B-]2(F)F` [BDM-300]: in data set [1], the “λmax (ABS)” value was determined as 562 nm and the “λmax (EM)” value is 579 nm. The “φ (quantum yield)” value in data set [2] is on record as 0.44.
On the same counts, the results for `COc1cc2ccccc2c(/C=C/C2=[N+]3C(=C(CCN)c4cccn4[B-]3(F)F)C(C)=C2)c1OC` [BDM-301] are 563 nm, 586 nm and 0.41.
Take `CC1=CC(/C=C/c2cccc(I)c2)=[N+]2C1=C(CCN)c1cccn1[B-]2(F)F` [BDM-303]: in data set [1], the “λmax (ABS)” value was 555 nm and the “λmax (EM)” value is given as 566 nm. Moreover, in data set [2], the “φ (quantum yield)” value was 0.31.
The corresponding values for `COc1cc(F)c(/C=C/C2=[N+]3C(=C(CCN)c4cccn4[B-]3(F)F)C(C)=C2)cc1OC` [BDM-305] are 567 nm, 587 nm and 0.25.
The corresponding values for `COc1cc(/C=C/C2=[N+]3C(=C(CCN)c4cccn4[B-]3(F)F)C(C)=C2)cc(O)c1OC` [BDM-307] are 564 nm, 580 nm and 0.07.
On the same counts, the results for `CC1=CC(/C=C/c2ccc(Oc3cc(Cl)cc(Cl)c3)cc2)=[N+]2C1=C(CCN)c1cccn1[B-]2(F)F` [BDM-308] are 556 nm, 567 nm and 0.19.
Turning to `COc1ccc(/C=C/C2=[N+]3C(=C(CCN)c4cccn4[B-]3(F)F)C(C)=C2)c(C)c1C` [BDM-310], in data set [1], the “λmax (ABS)” value is given as 566 nm and the “λmax (EM)” value came to 600 nm. In data set [2], the “φ (quantum yield)” value turned out to be 0.42.
Turning to `CC1=CC(/C=C/c2ccc(F)c(Oc3ccccc3)c2)=[N+]2C1=C(CCN)c1cccn1[B-]2(F)F` [BDM-311], in data set [1], the “λmax (ABS)” value is on record as 556 nm and the “λmax (EM)” value turned out to be 565 nm. The “φ (quantum yield)” value in data set [2] worked out at 0.21.
The corresponding values for `COc1cc(/C=C/C2=[N+]3C(=C(CCN)c4cccn4[B-]3(F)F)C(C)=C2)ccc1F` [BDM-312] are 557 nm, 568 nm and 0.18.
On the same counts, the results for `COc1ccc(/C=C/C2=[N+]3C(=C(CCN)c4cccn4[B-]3(F)F)C(C)=C2)cc1F` [BDM-314] are 556 nm, 570 nm and 0.10.
The corresponding values for `CCOc1ccc(/C=C/C2=[N+]3C(=C(CCN)c4cccn4[B-]3(F)F)C(C)=C2)c(OCC)c1` [BDM-316] are 572 nm, 610 nm and 0.46.
In the case of `CC1=CC(/C=C/c2cc(F)ccc2O)=[N+]2C1=C(CCN)c1cccn1[B-]2(F)F` [BDM-318], in data set [1], the “λmax (ABS)” value turned out to be 563 nm and the “λmax (EM)” value is given as 576 nm. For the same compound, the “φ (quantum yield)” value in data set [2] amounted to 0.11.
On the same counts, the results for `CCOc1c(/C=C/C2=[N+]3C(=C(CCN)c4cccn4[B-]3(F)F)C(C)=C2)cccc1OC` [BDM-320] are 558 nm, 569 nm and 0.21.
